row,melting point [°C],Structure (SMILES)
1,160 to 162,CCN1C(=O)C(C(=O)Nc2ccc(F)cc2)c2cc3c(cc21)CC(C)(C)O3 (stereo not given)
2,126 to 127,COC(=O)c1cnn2c(C(F)(F)F)cc(Cl)nc12
3,210 to 211,CCCOC(=O)Nc1cnc(OCCC)c(-c2nc3c(CCC)nn(C)c3c(=O)[nH]2)c1
4,102 to 105,Cc1cccc(-c2[nH]c(C(C)C)nc2-c2ccc(F)c(-c3ccc(S(C)(=O)=O)nc3)c2)n1
5,180 to 184,CC1(C(F)(F)F)NC(c2ncccc2C(=O)O)=NC1=O (stereo not given)
6,206 to 207,CC1(C)C=C(C(=NC2CC2)NC#N)c2cc([N+](=O)[O-])ccc2O1
7,128 to 129,COc1cc(OC)cc(N2CCN(C(=S)Nc3cc(C)c(C)cc3OC)CC2)c1
8,87 to 88.5,COC(=O)CCCc1cccc(NC(=O)[C@@H](CSC(C)=O)Cc2ccccc2)c1
9,226 to 228,Cc1c(CC2=C(O)CCC2=O)ccc2ccccc12
10,243,CC1(C)OC(=C(C#N)C#N)C(C#N)=C1C=Cc1cc2c3c(c1)CCCN3CCC2
11,> 300,O=C(O)c1cccc2c1Cc1c-2[nH]c2ccc(Cl)cc12
12,193 to 194,CC(C)Cc1ccc2c(c1)C(=O)N(c1ccc3c(ccn3C)c1)C2
13,147 to 149,COc1ccc(N(C)c2nc(C)nc3oc4c(c23)CCCC4)cc1
14,50 to 51,CS(=O)(=O)Nc1ccccc1SC1CCCCC1
15,237 to 238,CCC(=O)c1c(-c2ccncc2)[nH]c(-c2ccncc2)c1C
16,88.5 to 90,CCOC(=O)c1ccc(-c2ncc(Cl)nc2Cl)cc1
17,217 to 219,COc1ccc2c(c1OC)CCC1C(=O)NC(=O)C21 (stereo not given)
18,85,O=[N+]([O-])c1cc(Cl)c(Oc2cc(Cl)c(Br)cc2Cl)cc1Oc1ccccc1
19,116 to 117,COC1OC(CO)C(O)C(NC(=O)N(C)N=O)C1O (stereo not given)
20,139 to 142,N#CC(c1ccccc1)(c1ccccc1)C1CCCN(CCc2ccc(Cl)c(Cl)c2)C1 (stereo not given)
21,78,C=Cc1ccc(OC(C)C)c(OCCN2C(=O)c3ccccc3C2=O)c1
22,102 to 106,COc1ccc(CC(C(=O)Nc2nc3ccccc3o2)c2ccc(S(C)(=O)=O)cc2)cc1 (stereo not given)
23,204 to 206,CCn1cc(C(=O)O)c(=O)c2cc(F)c(N3CCC(CN(C)C)C3)c(F)c21 (stereo not given)

row,melting point [°C],Structure (SMILES)
1,105 to 115,CCOC(=O)Cc1coc2c(OC)ccc(C(=O)Cc3c(Cl)cncc3Cl)c12
2,143 to 146,CC(C)C(NC(=O)OCCN1CCCC1)C(=O)NC(Cc1ccccc1)C(O)C(Cc1ccccc1)NC(=O)C(NC(=O)OCc1ccccc1)C(C)C (stereo not given)
3,207 to 208,CCN1c2ncc(C=Cc3cccc(C)c3)cc2C(=O)N(C)c2cccnc21
4,54 to 55,O=[N+]([O-])c1cc(Cl)c(OCC(F)(F)F)cc1F
5,244 to 247,Cc1ccc2c(c1)Cn1nnnc1C(=O)N2
6,113 to 115,Clc1ccc2nc(Cl)nnc2c1
7,169 to 171,N=C(N)c1ccc(C(=O)NCCCCC(=O)NC(CC(=O)O)C(=O)NC(Cc2ccccc2)C(=O)O)cc1 (stereo not given)
8,210,CCc1cc2c(cc1N)N1CCCN=C1S2
9,131 to 132,CC(=O)c1ccc(C(=O)NCCOc2ccc3ccccc3c2)cc1
10,108,O=C1CCC(c2cccc(F)c2)(c2cccc(F)c2)[C@@H]2CN(C(=O)Cc3ccccc3)C[C@H]12 (racemic)
11,98 to 104,Cc1ccc([N+](=O)[O-])c(-c2nc(C(F)(F)F)cs2)c1
12,210 to 212,COc1cccc2cc(C(=O)O)c(C(=O)O)cc12
13,129 to 131,O=S(=O)(c1ccc(Cl)cc1)C1(c2cccnc2Cl)CCCCC1
14,201 to 202,Cn1ncc(/C=C/C(=O)Nc2ccc(CCc3nccs3)cc2)c1-c1ccc(F)cc1
15,117 to 118,CCCC=Cc1c(C(C)C)nc(C(C)C)c(CO)c1-c1cccc(F)c1
16,107 to 109,CCC(CC)Nc1ncnc2c1ncn2C
17,173 to 175,Cc1noc(=O)c2ccc(NC(=O)C(C)(O)CC(C)(C)c3ccccc3)cc12 (stereo not given)
18,138,COc1cc2c(C)c(-c3ccccc3)sc2c(Cl)c1Cl
19,275 to 279,O=[N+]([O-])c1ccc2c(c1)S(=O)(=O)c1cc(F)ccc1-2
20,157 to 159,CNC(=C[N+](=O)[O-])NCCN1CCC(C(=O)c2ccc(F)cc2)CC1
21,76 to 78,NCC(O)C1=CC2(CCCC2)c2ccccc21 (stereo not given)
22,98 to 101,CC(C)(C)C(O)(Cn1cncn1)C1CC1c1ccc(Cl)cc1Cl (stereo not given)
23,98.5 to 100,COC(=O)C(C)c1ccc2c(c1)Cc1cc(OC)ccc1-2 (stereo not given)

row,melting point [°C],Structure (SMILES)
1,154 to 155,CCC1Cc2cc(NC(C)=O)ccc2C1=O (stereo not given)
2,107 to 109,COc1cc(Br)cc2cc(C(C)=O)oc12
3,92 to 93,IC(I)=C(I)Cn1ncnn1
4,157 to 159,Cc1c(-c2ccc(=O)n(C)c2)cccc1[N+](=O)[O-]
5,204,CC(=O)N1CCc2c1cc(C)c(S(=O)(=O)C[N+](=O)[O-])c2C
6,164 to 166,Cc1nc(C)c(-c2ccnc(Nc3ccc(N4CCOCC4)c(C)c3)n2)s1
7,120 to 122,CCOc1ccccc1N1CCN(C(=O)Nc2nc3ccccc3nc2OCC)CC1
8,130 to 131,COC(=O)[C@@]12CO[C@@H](C(C)(C)C)N1C(=O)[C@@H](Cc1ccccc1)C2
9,114 to 116,CC(C)C(=O)NC(N)=S
10,76 to 78,FC(F)(F)CSC1(c2cccc(OCc3ccc4ccccc4c3)c2)CCOCC1
11,268 to 270,Cc1ccc(-c2c(C#N)n(C)c(=O)c3ncccc23)cc1
12,91 to 93,COc1cc(OC)c(C(C)=O)cc1OC
13,163,Clc1cc2c(cc1Cn1ccnc1-c1ccccc1)OCO2
14,200 to 202,COc1cccc(NC(=O)c2sccc2S(=O)(=O)Nc2onc(C)c2Br)c1
15,87 to 90,CS(=O)(=O)c1ccc(-c2cnn(Cc3ccccc3C(F)(F)F)c(=O)c2-c2ccc(F)cc2)cc1
16,111 to 113,Nc1cccc(-c2ccc(CCN3CCN(CCc4ccccc4)CC3)cc2)n1
17,118 to 120,Clc1cccc(-c2nc(Cl)cc(Cl)n2)c1
18,110 to 112,Cc1sc(N2C(=O)c3ccccc3C2=O)c(C(=O)c2ccc(Cl)cc2)c1CN1CCN(c2ccc(F)cc2)CC1
19,157 to 160,CCn1cc(F)c(N=CN(C)C)nc1=O
20,80 to 82,COc1ccc(-c2nc(C)c(C(=O)OCC[Si](C)(C)C)s2)cc1
21,200 to 208,COc1cccc(OC)c1C(=O)Nc1nnc(C2SCCCS2)s1
22,208 to 210,Cc1cc(C)c2c(c1)C=C(/C=C/C=C/C=C/C(=O)O)CO2
23,153 to 155,CSc1[nH]c(-c2cnn(-c3c(Cl)cc(C(F)(F)F)cc3Cl)n2)nc1[N+](=O)[O-]

row,melting point [°C],Structure (SMILES)
1,288,S=c1[nH]c(-c2ccc(Br)cc2)c(-c2ccc(Br)cc2)[nH]1
2,228 to 231,N#Cc1cc([N+](=O)[O-])cc(C#N)c1O
3,125,CC1OC(OC2C=C(Br)C(=O)C(C)O2)C=C(Br)C1=O (stereo not given)
4,190 to 191,Cc1ccc(-c2ccc(S(C)(=O)=O)cc2)n1-c1ccc(-c2nccs2)cc1
5,237 to 239,O=C(Cn1c2c(c(=O)n3nc(-c4ccc(Cl)cc4)cc13)CN(C1CCCCC1)C2=O)c1ccccc1
6,145 to 148,CS(=O)(=O)Nc1cccc(Nc2nc(NCc3ccccc3CO)c3nc[nH]c3n2)c1
7,130 to 132,Cc1cnc2sc(SCc3ccccc3)nn2c1=O
8,104,COc1ccc(C2CC(=O)N(c3ccccc3)C2)cc1OC (stereo not given)
9,86 to 88,COc1cc(C(=O)Cl)ccc1S(=O)(=O)Cl
10,298,NS(=O)(=O)c1cc(NC(=O)c2cnn3c(C(F)F)cc(-c4ccc(C(F)(F)F)cc4)nc23)c(Cl)s1
11,162 to 166,O=C(Nc1ccc(C(=O)N(CCN2CCC(C(=O)c3ccc(F)cc3)CC2)c2cccnc2)cc1)c1ccccc1
12,37.5,Cc1ccc(S(=O)(=O)OCP(=O)(OC(C)C)OC(C)C)cc1
13,142 to 144,Cc1cc(=O)c2c(OCCOc3ccccc3)cccc2o1
14,213 to 215,NC(=O)c1cc(-n2c(-c3ccccc3)cc3c2CCc2ccccc2-3)ccc1O
15,79,C=CC(=O)N[C@H](C)C(=O)OC1(C)CCC(C(C)C)CC1 (stereo not given in full)
16,204 to 206,O=C(c1ccc(Br)cc1)N1CC(=O)N2CCc3ccccc3C2C1 (stereo not given)
17,76 to 78,O=C(Nc1cccnc1NCc1ccc(Cl)cc1)c1ccccc1F
18,210 to 211,C=CCOC(=O)c1ccc(NC(=O)C(C(N)=O)c2ccc3c(c2)C(C)(C)CCC3(C)C)cc1 (stereo not given)
19,174,CCOC(=O)c1cccc(C(OC(=O)Nc2ccc3[nH]ncc3c2)[C@@H]2CCCCN2)c1 (stereo not given in full)
20,102 to 110,O=C(O)Cc1ccc(OCCNC(=O)C2Cc3ccccc3N2S(=O)(=O)c2ccc(-c3ccc(F)cc3)cc2)c(Cl)c1 (stereo not given)

row,Structure (SMILES),melting point [°C]
1,CC(C)c1nc(-c2ncn3c2[C@@H]2CCCN2C(=O)c2c(Cl)cccc2-3)no1,195 to 196
2,CCCOC(=O)C(Br)=CC1C(C(=O)OC(C#N)c2cccc(Oc3ccccc3)c2)C1(C)C (stereo not given),64
3,NC(=O)c1ncn2c1[C@@H]1CCN1C(=O)c1c-2ccc(F)c1Cl,296 to 298
4,O=C(Nc1ccccc1)Nc1cc(Cl)nc(Cl)c1,219 to 222
5,Cc1cc(Cl)ccc1N=C1NCCN1,137 to 138
6,CCOC(=O)c1ncn2c1[C@@H]1CCN1C(=O)c1c-2cccc1C(F)(F)F,183 to 184
7,CCOC(=O)c1cccc2c1c(C(=O)C(=O)NC1=CC(=O)OC1)cn2Cc1ccc(Cl)cc1,242 to 244
8,CCN1CCc2c(c(Br)cc([N+](=O)[O-])c2NC(C)=O)C1,168
9,CN(C)C(=O)NNCC1CC2c3cccc4[nH]cc(c34)CC2N(C)C1 (stereo not given),205 to 206
10,Cc1cc(C2=NNC(C)Cc3cc4c(cc32)OCO4)ccc1[N+](=O)[O-] (stereo not given),144 to 147
11,C=CCN(CC=C)Cc1csc(-c2ncn3c2[C@@H]2CCCN2C(=O)c2c(Cl)cccc2-3)n1,186 to 187
